Results published in patent US20220213198A1, “METHOD OF TREATMENT” (The Council of the Queensland Institute of Medical Research, priority 2019, published 2022).

B1: 8F2.F9: anti-MR1 blocking antibody from hybridoma clone 8F2.F9, IgG1 isotype; heavy chain SEQ ID NO: 14, light chain SEQ ID NO: 18 (antibody, listed as Mus musculus, V domains shown)
VH: MKFSWVIFFLMAVVTGVNSEVQLQQSVAELVRPGASVKLSCTASGFNIKNTYMHWVKKRPELGLEWIGRIDPANGNTNFAPKFQGKATITADTSSNTAYLQLSSLTSEDTAIYYCPRGSGNYYFDYWGQGTTLTVSS
VL: MSSAQFLGLLLLCFQGTRCDIQMTQTTSSLSASLGDRVTISCRASQDISNYLNWYQQKPDGPVKLLIYYTSRLHSGVPSRFSGSGSGTDYSLTINNLAQEDIATYFCQQGNTLPYTFGGGTKLEIK

Tests used:
LWT1 melanoma cells = assay: LWT1 experimental lung metastasis model; type: in vivo, mouse; conditions: day 14
Method: FIG. 2. Up-regulation of MR1 on B16F10 cells increases lung metastases that is dependent on MAIT cells. (A) The schematic and timeline of expanding MAIT cells from splenocytes derived from C57BL/6 WT mice with IL-2 and 5-OP-RU, for sorting and adoptive transfer into tumor-bearing mice. (B, C) Groups of WT or MR1^−/− or Rag2cγ^−/− mice (n=5-6/group) were injected i.v. with (B) 1×10^5 or (C) 1×10^4 B16F10 melanoma cells. In some groups, sorted MAIT or T conventional cells (cT) (non-MAIT αβ^+ T cells) (2×10^5 cells/mouse) from C57BL/6 (B) WT or (C) TCRδ^−/− mice were i.v. injected into the indicated groups of mice one day before tumor inoculation. (C) One group of mice received i.v injection of media alone as a control. (B, C) On day 14 relative to tumor cell inoculation, lungs were harvested and the metastatic burden was quantified by counting colonies on the lung surface. Data presented as mean±SEM. (D) B16F10 or LWT1 melanoma cells were stimulated in vitro with DMSO or 5-OP-RU (100 nM) for 4 hours before cell surface MR1 expression was determined by flow cytometry. […] Fourteen days later relative to tumor cell inoculation, lungs were harvested and the metastatic burden was quantified by counting colonies on the lung surface. […] Significant differences between groups as indicated by crossbars were determined using a one-way ANOVA followed by Tukey's post-hoc test (B, E, F), *p<0.05, **p<0.01, ****p<0.0001
FIG. 6. […] (A-D) On day 14, lungs were harvested and the metastatic burden was quantified by counting colonies on the lung surface. […] (E, F), Mice were monitored for tumor growth (calculated by the product of 2 perpendicular axes). […] Significant differences between groups as indicated by crossbars were determined by a one-way ANOVA followed by Tukey's post-hoc test (A, B) or a Mann-Whitney test (C, […]), *p<0.05, **p<0.01, ***p<0.001.
The indicated numbers of B16F10 and LWT1 cells were injected intravenously (i.v.) into the tail vein of WT or gene-targeted mice. […] Lungs were harvested on day 14, and surface tumor nodules were counted under a dissection microscope. […]

MR1 / MAIT cells = conditions: cited from earlier work

| Molecule | number of lung metastases (LWT1 melanoma cells; MR1-/- mice i.v. injected with pre-treated LWT1, vs DMSO-treated) | number of lung metastases (LWT1 melanoma cells; WT mice i.v. injected with LWT1 pre-treated 100 nM 4 h, vs DMSO-treated) | effect on MAIT cell activation (MR1 / MAIT cells; background statement) | LWT1 lung metastases (LWT1 melanoma cells; 250 μg/mouse i.p. days -1, 0 and 3, vs cIg) | blocking of MAIT cell interaction with MR1 (MR1 / MAIT cells; stated as known) |
| --- | --- | --- | --- | --- | --- |
| CC(=O)C=Nc1c(NC[C@H](O)[C@H](O)[C@H](O)CO)[nH]c(=O)[nH]c1=O [5-OP-RU] | this increase was lost | significantly increased | one of the most potent stimulatory MAIT cell antigens |  |  |
| B1 |  |  |  | significantly reduced | block MAIT cells from interacting with MR1 |
